Assay results from PubChem BioAssay AID1918938 (Molecular Pharmacology Branch, DTP, NCI, 2023).

System: 556581-035-R-J1-PDC complex spheroid viability
Test: Anticancer human tumor 556581-035-R-J1-PDC patient-derived ovarian carcinoma cell line growth inhibition
Details: for IC50: curve of first compound; for viability, T/C: stronger effect = lower value
In short: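 Complex spheroids of tumor cells with HUVEC and human MSCs, exposed to iadademstat combined with other agents. Each agent tested in half-log steps from near clinical Cmax (else 10 microM top), DMSO ≤0.25%.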

[1] = second compound 0.1 µM, first compound 0.00316 µM
[2] = second compound 0.1 µM, first compound 0.01 µM
[3] = second compound 0.1 µM, first compound 0.0316 µM
[4] = second compound 0.1 µM, first compound 0.1 µM
[5] = second compound 0.1 µM, first compound 0.316 µM
[6] = second compound 0.1 µM, first compound 1 µM
[7] = second compound 0.316 µM, first compound 0.00316 µM
[8] = second compound 0.316 µM, first compound 0.01 µM
[9] = second compound 0.316 µM, first compound 0.0316 µM
[10] = second compound 0.316 µM, first compound 0.1 µM
[11] = second compound 0.316 µM, first compound 0.316 µM
[12] = second compound 0.316 µM, first compound 1 µM
[13] = second compound 1 µM, first compound 0.00316 µM
[14] = second compound 1 µM, first compound 0.01 µM
[15] = second compound 1 µM, first compound 0.0316 µM
[16] = second compound 1 µM, first compound 0.1 µM
[17] = second compound 1 µM, first compound 0.316 µM
[18] = second compound 1 µM, first compound 1 µM
[19] = second compound 3.16 µM, first compound 0.00316 µM
[20] = second compound 3.16 µM, first compound 0.01 µM
[21] = second compound 3.16 µM, first compound 0.0316 µM
[22] = second compound 3.16 µM, first compound 0.1 µM
[23] = second compound 3.16 µM, first compound 0.316 µM
[24] = second compound 3.16 µM, first compound 1 µM
[25] = second compound 10 µM, first compound 0.00316 µM
[26] = second compound 10 µM, first compound 0.01 µM
[27] = second compound 10 µM, first compound 0.0316 µM
[28] = second compound 10 µM, first compound 0.1 µM
[29] = second compound 10 µM, first compound 0.316 µM
[30] = second compound 10 µM, first compound 1 µM
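Note: spheroids exposed to agents for seven days.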
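Throughout, for viability, T/C: 100% = DMSO vehicle control wells.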

SMILES	IC50 (second compound 0.1 µM)	IC50 (second compound 0.316 µM)	IC50 (second compound 1 µM)	IC50 (second compound 3.16 µM)	IC50 (second compound 10 µM)	viability, T/C [3]	viability, T/C [4]	viability, T/C [5]	viability, T/C [6]	viability, T/C [9]	viability, T/C [10]	viability, T/C [11]	viability, T/C [12]	viability, T/C [15]	viability, T/C [16]	viability, T/C [17]	viability, T/C [18]	viability, T/C [21]	viability, T/C [22]	viability, T/C [23]	also measured
CC1COCCN1c1cc(-c2ccnn2C)c2ccnc(-c3ccn[nH]3)c2n1 (stereo not given) + NC1CC1c1ccc(-c2cccc(O)c2)cc1	5.22 nM	4.45 nM	3.3 nM	5.31 nM	8.98 nM	33.5%	25.4%	21.7%	10.2%	33.4%	23.8%	23%	10.6%	34.3%	26.4%	26.1%	9.41%	38.5%	29.2%	26.9%	viability, T/C [1]: 54.8%; viability, T/C [2]: 44%; viability, T/C [7]: 51.2%; viability, T/C [8]: 47.9%; viability, T/C [13]: 49.5%; viability, T/C [14]: 47.1%; viability, T/C [19]: 54.6%; viability, T/C [20]: 44.5%; viability, T/C [24]: 11%; viability, T/C [25]: 55.3%; viability, T/C [26]: 49.9%; viability, T/C [27]: 36.4%; viability, T/C [28]: 29.7%; viability, T/C [29]: 26%; viability, T/C [30]: 25.6%
COc1ccc([C@@H](O)c2cc(-c3ncnc4cc(N5CCOCC5)ccc34)c(F)cc2Cl)nn1 + NC1CC1c1ccc(-c2cccc(O)c2)cc1	853 nM	932 nM	1000 nM	621 nM	1050 nM	102%	87%	68.2%	46.3%	85.2%	75.9%	62.7%	48.4%	82.5%	79.8%	55.1%	52.6%	82.8%	84.2%	64.5%	viability, T/C (second compound 0.1 µM, first compound 3.16 µM): 34.5%; viability, T/C (second compound 0.1 µM, first compound 10 µM): 26.9%; viability, T/C (second compound 0.316 µM, first compound 3.16 µM): 37.9%; viability, T/C (second compound 0.316 µM, first compound 10 µM): 27.3%; viability, T/C (second compound 1 µM, first compound 3.16 µM): 38.7%; viability, T/C (second compound 1 µM, first compound 10 µM): 25.3%; viability, T/C [24]: 39.7%; viability, T/C (second compound 3.16 µM, first compound 3.16 µM): 34%; viability, T/C (second compound 3.16 µM, first compound 10 µM): 30.1%; viability, T/C [27]: 97.4%; viability, T/C [28]: 79.6%; viability, T/C [29]: 64.8%; viability, T/C [30]: 48.5%; viability, T/C (second compound 10 µM, first compound 3.16 µM): 41.3%; viability, T/C (second compound 10 µM, first compound 10 µM): 24.4%
O=C(C=Cn1cnc(-c2cc(C(F)(F)F)cc(C(F)(F)F)c2)n1)NNc1cnccn1 + NC1CC1c1ccc(-c2cccc(O)c2)cc1	40.6 nM	51.3 nM	70.5 nM	73.4 nM	80.1 nM	52.4%	38.5%	16.9%	6.78%	61.4%	32.6%	22.7%	4.35%	72.3%	40.1%	17.2%	10.3%	61%	43.7%	28%	viability, T/C [1]: 68%; viability, T/C [2]: 63.7%; viability, T/C [7]: 74.5%; viability, T/C [8]: 73.1%; viability, T/C [13]: 76.9%; viability, T/C [14]: 74.2%; viability, T/C [19]: 73.1%; viability, T/C [20]: 74.3%; viability, T/C [24]: 8%; viability, T/C [25]: 71.3%; viability, T/C [26]: 77.7%; viability, T/C [27]: 56.5%; viability, T/C [28]: 52.3%; viability, T/C [29]: 20.2%; viability, T/C [30]: 13.4%
